Patent US20170334899A1, “AMINO-SUBSTITUTED ISOTHIAZOLES” (Bayer Pharma Aktiengesellschaft, priority 2014, published 2017)
Like-named read-outs stand apart in the source and are kept apart here.

How the values were obtained:
[1] = test system: HeLa; assay: Proliferation assay (crystal violet), HeLa; type: cell-based; settings: HeLa cells, 4 days incubation, crystal violet staining, read-out: IC50 inhibition of proliferation, HeLa
Summary of the method: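 Four-day compound exposure (0.001-10 μM, 0.5% DMSO final) began 24 h after seeding 1000-5000 cells/well in medium with 10% fetal calf serum. Cell number read by crystal violet absorbance at 595 nm, scaled between day-zero plate and untreated control; 4-parameter fit gave IC50.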

[2] = target: T1, CDK2/CycE (Homo sapiens, UniProt P24941); assay: CDK2/CycE kinase assay (TR-FRET); type: biochemical; settings: avg, read-out: CDK2 avg (IC50 [mol/l])
T1 construct: GST; purchased ProQinase GmbH (Freiburg, Germany); host or cells: insect cells (Sf9)
Summary of the method: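 Read-out is a TR-FRET 665/620 nm emission ratio from EDTA-stopped reactions detected with anti-pRB(pSer807/pSer811), Eu-labelled anti-mouse IgG and streptavidin-XL665, scaled between no-enzyme and uninhibited wells. Reaction: Sf9-expressed GST-CDK2/GST-CycE, 15 min compound preincubation, 10 μM ATP, 0.75 μM biotin-peptide, 25 min, 22° C., pH 8.0 Tris buffer.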

IC50 ([1]; Homo sapiens, HeLa, 96 h)	IC50 [2]	IC50 [1]	SMILES
0.45 µM	> 20 µM		Cc1nsc(Nc2cnc(C(F)(F)F)cn2)c1C(=O)Nc1ccc(F)c(OC[C@@H]2CCN(CC(F)F)C2)c1 [Example 403, N-(3-{[(3R)-1-(2,2-difluoroethyl)pyrrolidin-3-yl]methoxy}-4-fluorophenyl)-3-methyl-5-{[5-(trifluoromethyl)pyrazin-2-yl]amino}-1,2-thiazole-4-carboxamide]
0.34 µM	> 20 µM		Cc1nsc(Nc2cnc(C(F)(F)F)cn2)c1C(=O)Nc1ccc(OCC2CCN(CCC(F)(F)F)CC2(F)F)nc1 (stereo not drawn) [Example 402, N-(6-{[3,3-difluoro-1-(3,3,3-trifluoropropyl)piperidin-4-yl]methoxy}pyridin-3-yl)-3-methyl-5-{[5-(trifluoromethyl)pyrazin-2-yl]amino}-1,2-thiazole-4-carboxamide]
0.56 µM	≥ 20 µM		Cc1nsc(Nc2cnc(C(F)(F)F)cn2)c1C(=O)Nc1ccc(OC2CCN(C(=O)OC(C)(C)C)CC2)nc1 [Example 5, tert-Butyl 4-[(5-{[(3-methyl-5-{[5-(trifluoromethyl)pyrazin-2-yl]amino}-1,2-thiazol-4-yl)carbonyl]amino}pyridin-2-yl)oxy]piperidine-1-carboxylate]
0.86 µM	≥ 20 µM		Cc1nsc(Nc2cnc(C(F)(F)F)cn2)c1C(=O)Nc1ccc(F)c(OCCCNC(=O)C(F)(F)F)c1 [Example 427, N-(4-Fluoro-3-{3-[(trifluoroacetyl)amino]propoxy}phenyl)-3-methyl-5-{[5-(trifluoro-methyl)pyrazin-2-yl]amino}-1,2-thiazole-4-carboxamide]
0.19 µM	> 20 µM		Cc1nsc(Nc2cnc(C(F)(F)F)cn2)c1C(=O)Nc1ccc(O[C@@H]2CN(CCC(F)(F)F)C[C@@H]2F)nc1 [Example 409, N-(6-{[(3R,4S)-4-Fluoro-1-(3,3,3-trifluoropropyl)pyrrolidin-3-yl]oxy}pyridin-3-yl)-3-methyl-5-{[5-(trifluoromethyl)pyrazin-2-yl]amino}-1,2-thiazole-4-carboxamide]
0.16 µM	> 20 µM		CCN1CCC(Oc2ccc(NC(=O)c3c(C)nsc3Nc3cnc(C(F)(F)F)cn3)cn2)C(F)(F)C1 (stereo not drawn) [Example 406, N-{6-[(1-Ethyl-3,3-difluoropiperidin-4-yl)oxy]pyridin-3-yl}-3-methyl-5-{[5-(trifluoromethyl)pyrazin-2-yl]amino}-1,2-thiazole-4-carboxamide]
0.22 µM	> 20 µM	0.41 µM	Cc1nsc(Nc2cnc(C(F)(F)F)cn2)c1C(=O)Nc1ccc(F)c(OCC2CCN(CC(F)(F)F)C2)c1 (stereo not drawn) [Example 318, N-(4-fluoro-3-{[1-(2,2,2-trifluoroethyl)pyrrolidin-3-yl]methoxy}phenyl)-3-methyl-5-{[5-(trifluoromethyl)pyrazin-2-yl]amino}-1,2-thiazole-4-carboxamide]
0.77 µM	> 20 µM		Cc1nsc(Nc2cnc(C(F)(F)F)cn2)c1C(=O)Nc1ccc(F)c(OC[C@H]2CCCN(CC(F)F)C2)c1 [Example 400, N-(3-{[(3S)-1-(2,2-difluoroethyl)piperidin-3-yl]methoxy}-4-fluorophenyl)-3-methyl-5-{[5-(trifluoromethyl)pyrazin-2-yl]amino}-1,2-thiazole-4-carboxamide]
2.3 µM	≥ 20 µM		Cc1nsc(Nc2cnc3ccccc3n2)c1C(=O)Nc1ccc(OCCCNC(=O)OC(C)(C)C)nc1 [Example 42, tert-Butyl (3-{[5-({[3-methyl-5-(quinoxalin-2-ylamino)-1,2-thiazol-4-yl]carbonyl}-amino)pyridin-2-yl]oxy}propyl)carbamate]
10 µM	≥ 20 µM		Cc1nsc(Nc2cc(C#N)ccn2)c1C(=O)Nc1ccc(OCCCNCC(F)F)nc1 [Example 45, 5-[(4-Cyanopyridin-2-yl)amino]-N-(6-{3-[(2,2-difluoroethyl)amino]propoxy}pyridin-3-yl)-3-methyl-1,2-thiazole-4-carboxamide]
10 µM	≥ 20 µM		Cc1nsc(Nc2cnccn2)c1C(=O)Nc1ccc(OCCCNC(=O)OC(C)(C)C)nc1 [Example 47, tert-Butyl (3-{[5-({[3-methyl-5-(pyrazin-2-ylamino)-1,2-thiazol-4-yl]carbonyl}-amino)pyridin-2-yl]oxy}propyl)carbamate]
0.25 µM	> 20 µM		Cc1nsc(Nc2cnc(C(F)(F)F)cn2)c1C(=O)Nc1ccc(F)c(O[C@H]2CCN(CC(F)(F)F)C2)c1 [Example 416, N-(4-Fluoro-3-{[(35)-1-(2,2,2-trifluoroethyl)pyrrolidin-3-yl]oxy}phenyl)-3-methyl-5-{[5-(trifluoromethyl)pyrazin-2-yl]amino}-1,2-thiazole-4-carboxamide]
> 10 µM	> 20 µM		CC(=O)Nc1ccc(NC(=O)c2c(C)nsc2Nc2ccc(C#N)cn2)cn1 [Example 435, N-(6-Acetamidopyridin-3-yl)-5-[(5-cyanopyridin-2-yl)amino]-3-methyl-1,2-thiazole-4-carboxamide]
0.35 µM	> 20 µM		Cc1nsc(Nc2cnc(C(F)(F)F)cn2)c1C(=O)Nc1ccc(F)c(O[C@H]2CCN(CCC(F)(F)F)C2)c1 [Example 415, N-(4-Fluoro-3-{[(3S)-1-(3,3,3-trifluoropropyl)pyrrolidin-3-yl]oxy}phenyl)-3-methyl-5-{[5-(trifluoromethyl)pyrazin-2-yl]amino}-1,2-thiazole-4-carboxamide]
0.17 µM	> 20 µM		Cc1nsc(Nc2cnc(C(F)(F)F)cn2)c1C(=O)Nc1ccc(O[C@@H]2CN(CC(F)F)C[C@@H]2F)nc1 [Example 411, N-(6-{[(3R,4S)-1-(2,2-Difluoroethyl)-4-fluoropyrrolidin-3-yl]oxy}pyridin-3-yl)-3-methyl-5-{[5-(trifluoromethyl)pyrazin-2-yl]amino}-1,2-thiazole-4-carboxamide]
10 µM	≥ 20 µM		Cc1nsc(Nc2cnccn2)c1C(=O)Nc1ccc(OC2CCCN(C(=O)OC(C)(C)C)C2)nc1 (stereo not drawn) [Example 41, tert-Butyl 3-{[5-({[3-methyl-5-(pyrazin-2-ylamino)-1,2-thiazol-4-yl]carbonyl}amino)-pyridin-2-yl]oxy}piperidine-1-carboxylate]
0.43 µM	> 20 µM		Cc1nsc(Nc2cnc(C(F)(F)F)cn2)c1C(=O)Nc1ccc(OCC2CCN(CC(F)F)CC2(F)F)nc1 (stereo not drawn) [Example 401, N-(6-{[1-(2,2-difluoroethyl)-3,3-difluoropiperidin-4-yl]methoxy}pyridin-3-yl)-3-methyl-5-{[5-(trifluoromethyl)pyrazin-2-yl]amino}-1,2-thiazole-4-carboxamide]
10 µM	≥ 20 µM		Cc1nsc(Nc2cnc3ccccc3n2)c1C(=O)Nc1cccc(C(=O)N[C@H](C(=O)OC(C)(C)C)[C@@H](C)OC(C)(C)C)c1 [Example 57, tert-Butyl O-tert-butyl-N-[3-({[3-methyl-5-(quinoxalin-2-ylamino)-1,2-thiazol-4 yl]carbonyl}amino)-benzoyl]threoninate]
8 µM	> 20 µM		Cc1nsc(Nc2cnc3ccccc3n2)c1C(=O)Nc1ccc(NCCN(C)C(=O)OC(C)(C)C)nc1 [Example 434, tert-Butyl methyl(2-{[5-({[3-methyl-5-(quinoxalin-2-ylamino)-1,2-thiazol-4-yl]carbonyl}amino)pyridin-2-yl]amino}ethyl)carbamate]
